Source: patent US20210227843A1, “A TEMPERING COMPOSITION FOR TEMPERING GRAIN AND CONTROLLING PATHOGENS IN AND/OR ON SAID GRAIN, AN OXIDIZING COMPOSITION FOR PREPARING SAID TEMPERING COMPOSITION, A USE OF SAID TEMPERING COMPOSITION AND A METHOD OF USE OF SAID TEMPERING COMPOSITION” (AGRI-NEO INC., priority 2017, published 2021)

Experiment: Flour functionality, sensory and physical characteristics after tempering wheat in an organic flour mill (Example 1)
Details: 2 L per ton of wheat (citric acid 2 Kg); 16 h hold

SMILES	MIXOLAB Stability
CC(O)C(=O)O (centres unmarked) [Lactic acid]	17.5 min
O=C(O)CC(O)(CC(=O)O)C(=O)O [Citric acid]	13.5 min
